This assay concerns the target T1, Farnesoid X receptor (FXR) (Homo sapiens, UniProt Q96RI1).
T1 construct: gene NR1H4; FXR-LBD-Glutathione S-transferase fusion protein
T1 sequence (Q96RI1 262-486 limits assumed): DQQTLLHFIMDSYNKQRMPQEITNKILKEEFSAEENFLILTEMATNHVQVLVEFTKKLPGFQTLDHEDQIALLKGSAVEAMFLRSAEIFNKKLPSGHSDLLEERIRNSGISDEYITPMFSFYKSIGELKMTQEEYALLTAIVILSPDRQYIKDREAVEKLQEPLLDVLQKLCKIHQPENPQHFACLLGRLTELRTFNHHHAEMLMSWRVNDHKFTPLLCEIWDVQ
Put plainly: LanthaScreen TR-FRET FXR coactivator recruitment assay (partial agonist, […] of GW4064); also luciferase reporter assay. The class given is binding.

Regarding `CC(C)(C)c1ccc(-n2c(C3CC3)nc3c(NC(=O)c4ccc(C(=O)O)cc4)cccc32)cc1` [FLG390], a half-maximal response (EC50) required 630 ± 260 nM.

Values taken from publication PMC11722014, “FXR Activation Accelerates Early Phase of Osteoblast Differentiation Through COX-2-PGE2-EP4 Axis in BMP-2-Induced Mouse Mesenchymal Stem Cells” (Molecules, 2024).
